Measured values as given in US10172837B2, “Insulin sensitisers and methods of treatment” (NAIA Metabolic, Inc., priority 2007, dated 2019).

Legend:
3T3-L1 adipocytes = assay: 2-Deoxyglucose uptake by 3T3-L1 adipocytes; format: cell-based; conditions: for 2-Deoxyglucose uptake (Normalised: Vehicle with no insulin = 100%): DCP 10 μM
Description: Dichlorphenamide was added during serum-starvation. […] Insulin at 0, 0.5 and 10 nM was added for 20 min at 37° C. Uptake of 50 μM 2-deoxy glucose and 0.5 μCi 2-deoxy-[U-^3H] glucose (NEN, PerkinElmer Life Sciences) per well was measured over the final 10 min of insulin stimulation. […] Counts per minute (cpm) were measured by scintillator counter. […] The data is expressed as a mean±SEM. The statistical analysis was performed using an umpaired t-test (2-tailed).

[1] = test system: Diet-Induced Obese (DIO) Mice; assay: ipGTT (glucose tolerance) in diet-induced obese mice; format: in vivo, Mus Musculus; conditions: for AUC Day −1: before dosing; for AUC Day −1 / AUC Day 19: in mM·min
[2] = test system: Diet-Induced Obese (DIO) Mice; assay: Fasting plasma glucose in diet-induced obese mice; format: in vivo, Mus Musculus
[3] = test system: obese Psammomys obesus (Israeli sand rats); assay: Oral glucose tolerance test in obese Psammomys obesus; format: in vivo
Excerpt: The outbred Israeli sand rat, Psammomys obesus is a unique animal model for the study of obesity and diabetes. When housed under standard laboratory conditions, a proportion of Israeli sand rats become obese and develop type 2 diabetes spontaneously, without requiring high caloric feeding like the diet-induced obese mouse model, or as a consequence of a mutation in a particular gene as in the db/db mouse model. In this regard their evolution into a diabetic state closely resembles the environmental and polygenic human condition. Type 2 diabetic P. obesus are also profoundly insulin resistant, as measured by the area under the blood glucose curve during an oral glucose tolerance test (OGTT). In addition, a proportion of the animals remain lean and healthy under these same conditions, while others develop a range of intermediate phenotypes. This response is similar to that seen in human populations. Diabetic P. obesus are characterised by having elevated blood glucose levels. […] USA). […] Glucose was measured in whole blood using a YSI glucose analyser (Model #2300 STAT PLUS, Yellow Springs Instruments Co., Ohio, USA). The instrument takes a sample aliquot of 25 μl and is calibrated every 10 samples using 5.55 and 8.33 mmol/L glucose standards. The analyser utilises a probe fitted with a 3-layer membrane containing an immobilised enzyme. J3-D-glucose is oxidised by glucose oxidase, which is immobilised on a polycarbonate cellulose membrane, to form glucono-( )-lactone and hydrogen peroxide. The hydrogen peroxide in turn, is oxidised at the platinum anode, producing electrons. The electron flow is linearly proportional to the steady state hydrogen peroxide concentration and therefore to the concentration of glucose in the sample. Insulin levels were measured in plasma obtained after the […] heparin-coated tubes. Plasma insulin concentrations were determined using a commercially-available double antibody radio-immunoassay (RIA) kit. (Linco Research Inc., USA). […] Solutions were then incubated for 2 hours before adding 1 ml of sheep anti-guinea pig antibody (second antibody) and left to incubate again for 30 min at room temperature. Bound and free insulin were then separated by centrifugation at 3,500 g for 20 min (Beckman Centrifuge Model J6B, Beckman Instruments, […], Australia), leaving the bound insulin in a pellet at the bottom of the tube following aspiration of each sample. A gamma counter (Minaxi g Auto-gamma 5000 series. Packard Instrument Company, IL, USA) with a counting time of 1 min was then used to measure the radioactivity of the solid phase pellet.

[4] = Dichlorphenamide 50 mg/kg oral gavage
[5] = dichlorphenamide 20 mg/kg oral gavage
[6] = 20 mg/Kg DCP oral gavage, 0 min after glucose gavage
[7] = 20 mg/Kg DCP oral gavage, 15 min after glucose gavage
[8] = 20 mg/Kg DCP oral gavage, 30 min after glucose gavage
[9] = 20 mg/Kg DCP oral gavage, 45 min after glucose gavage
[10] = 20 mg/Kg DCP oral gavage, 60 min after glucose gavage
[11] = 20 mg/Kg DCP oral gavage, 90 min after glucose gavage

NS(=O)(=O)c1cc(Cl)c(Cl)c(S(N)(=O)=O)c1 [Dichlorphenamide]
2-Deoxyglucose uptake (Normalised: Vehicle with no insulin = 100%) (3T3-L1 adipocytes; 0.5 nM Insulin): 1468 ± 400^2% | 2-Deoxyglucose uptake (Normalised: Vehicle with no insulin = 100%) (3T3-L1 adipocytes; 10 nM Insulin): 1826 ± 97 ^ % | 2-Deoxyglucose uptake (Normalised: Vehicle with no insulin = 100%) (3T3-L1 adipocytes; no insulin (basal)): 508 ± 57^1% | effect on basal and insulin stimulated 2-deoxyglucose uptake (3T3-L1 adipocytes; basal, 0.5 nM and 10 nM insulin): enhanced | effect on glucose tolerance of diet-induced obese mice [1]: improves the glucose tolerance | AUC Day −1 ([1]; Dichlorphenamide 20 mg/kg group): 1350 ± 56 | AUC Day 19 ([1]; Dichlorphenamide 20 mg/kg oral gavage): 832 ± 80 | AUC Day −1 ([1]; Dichlorphenamide 50 mg/kg group): 1345 ± 73 | AUC Day 19 Treat vs Veh [1, 4]: −8% | Delta AUC Day 19 vs Day −1 [1, 4]: −32%^1 | AUC Day 19 [1, 4]: 908 ± 38 | AUC Day 19 Treat vs Veh [1, 5]: −16% | Delta AUC Day 19 vs Day −1 [1, 5]: −38%^2 | effect on fasting plasma glucose levels of diet-induced obese mice [2]: reduced the fasting plasma glucose levels | FPG Day −1 ([2]; dichlorphenamide 20 mg/kg group, before dosing): 10.05 ± 0.2 mM | Delta FPG Treatment Day 14 vs Day −1 [2, 5]: −17%^1 | Delta FPG Treatment vs Vehicle Day 14 [2, 5]: −11%^2 | FPG Day 14 [2, 5]: 8.35 ± 0.2 mM | Plasma Glucose [3, 6]: 3.4 ± 0.2 mM | Plasma Insulin [3, 6]: 48 ± 15 mU/ml | Plasma Glucose [3, 7]: 5.4 ± 0.2 mM | Plasma Insulin [3, 7]: 141 ± 21 mU/ml | Plasma Glucose [3, 8]: 4.7 ± 0.4 mM | Plasma Insulin [3, 8]: 149 ± 49 mU/ml | Plasma Glucose [3, 9]: 5.1 ± 0.3 mM | Plasma Insulin [3, 9]: 123 ± 39 mU/ml | Plasma Glucose [3, 10]: 4.7 ± 0.4 mM | Plasma Insulin [3, 10]: 202 ± 46 mU/ml | Plasma Glucose [3, 11]: 4.3 ± 0.4 mM | Plasma Insulin [3, 11]: 117 ± 22 mU/ml | Plasma Glucose AUC ([3]; 20 mg/Kg DCP oral gavage, OGTT 0-90 min): 119 ± 16 mM·min | Plasma Insulin AUC ([3]; 20 mg/Kg DCP oral gavage, OGTT 0-90 min, listed as head prints (mM · min)): 8,548 ± 2441 | effect on glucose tolerance in oral glucose tolerance test ([3]; area under plasma glucose and plasma insulin curve): increased the glucose tolerance
